Test results from ChEMBL document CHEMBL4725240, “Non-'classical' MEKs: A review of MEK3-7 inhibitors” (Bioorg Med Chem Lett, 2020).
Each block holds one molecule with its values, some of them ahead of it.

What was measured:
[1] = species on record: Homo sapiens; assay: Selectivity ratio of IC50 for TGFbetaR1 (unknown origin) to IC50 for MEK5 (unknown origin)
[2] = species on record: Homo sapiens; assay: Selectivity ratio of IC50 for ERK5 (unknown origin) to IC50 for MEK5 (unknown origin)
[3] = molecular target: Aurora kinase B (Homo sapiens) (UniProt Q96GD4); assay: Inhibition of N- terminal GST-tagged/His6-tagged human recombinant full length Aurora kinase B ([…]) expressed in baculovirus sf21 cells at 1 uM relative to control
Chain of Aurora kinase B (Homo sapiens) (Q96GD4 whole entry, the tested form may be a part): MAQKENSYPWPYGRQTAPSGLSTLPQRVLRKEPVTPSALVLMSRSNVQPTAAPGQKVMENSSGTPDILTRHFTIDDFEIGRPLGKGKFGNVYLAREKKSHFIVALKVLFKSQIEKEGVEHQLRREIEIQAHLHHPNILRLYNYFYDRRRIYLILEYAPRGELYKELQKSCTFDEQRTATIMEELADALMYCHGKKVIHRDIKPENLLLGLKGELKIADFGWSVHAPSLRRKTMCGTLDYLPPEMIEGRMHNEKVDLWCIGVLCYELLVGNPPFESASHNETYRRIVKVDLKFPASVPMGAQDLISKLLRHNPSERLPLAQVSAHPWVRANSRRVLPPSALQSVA

[4] = molecular target: Leucine-rich repeat serine/threonine-protein kinase 2 (Homo sapiens) (UniProt Q5S007); assay: Inhibition of wild type full length recombinant human LRRK2 (H970 to E2527 residues) at 1 uM relative to control
Chain of Leucine-rich repeat serine/threonine-protein kinase 2 (Homo sapiens) (Q5S007 whole entry, the tested form may be a part): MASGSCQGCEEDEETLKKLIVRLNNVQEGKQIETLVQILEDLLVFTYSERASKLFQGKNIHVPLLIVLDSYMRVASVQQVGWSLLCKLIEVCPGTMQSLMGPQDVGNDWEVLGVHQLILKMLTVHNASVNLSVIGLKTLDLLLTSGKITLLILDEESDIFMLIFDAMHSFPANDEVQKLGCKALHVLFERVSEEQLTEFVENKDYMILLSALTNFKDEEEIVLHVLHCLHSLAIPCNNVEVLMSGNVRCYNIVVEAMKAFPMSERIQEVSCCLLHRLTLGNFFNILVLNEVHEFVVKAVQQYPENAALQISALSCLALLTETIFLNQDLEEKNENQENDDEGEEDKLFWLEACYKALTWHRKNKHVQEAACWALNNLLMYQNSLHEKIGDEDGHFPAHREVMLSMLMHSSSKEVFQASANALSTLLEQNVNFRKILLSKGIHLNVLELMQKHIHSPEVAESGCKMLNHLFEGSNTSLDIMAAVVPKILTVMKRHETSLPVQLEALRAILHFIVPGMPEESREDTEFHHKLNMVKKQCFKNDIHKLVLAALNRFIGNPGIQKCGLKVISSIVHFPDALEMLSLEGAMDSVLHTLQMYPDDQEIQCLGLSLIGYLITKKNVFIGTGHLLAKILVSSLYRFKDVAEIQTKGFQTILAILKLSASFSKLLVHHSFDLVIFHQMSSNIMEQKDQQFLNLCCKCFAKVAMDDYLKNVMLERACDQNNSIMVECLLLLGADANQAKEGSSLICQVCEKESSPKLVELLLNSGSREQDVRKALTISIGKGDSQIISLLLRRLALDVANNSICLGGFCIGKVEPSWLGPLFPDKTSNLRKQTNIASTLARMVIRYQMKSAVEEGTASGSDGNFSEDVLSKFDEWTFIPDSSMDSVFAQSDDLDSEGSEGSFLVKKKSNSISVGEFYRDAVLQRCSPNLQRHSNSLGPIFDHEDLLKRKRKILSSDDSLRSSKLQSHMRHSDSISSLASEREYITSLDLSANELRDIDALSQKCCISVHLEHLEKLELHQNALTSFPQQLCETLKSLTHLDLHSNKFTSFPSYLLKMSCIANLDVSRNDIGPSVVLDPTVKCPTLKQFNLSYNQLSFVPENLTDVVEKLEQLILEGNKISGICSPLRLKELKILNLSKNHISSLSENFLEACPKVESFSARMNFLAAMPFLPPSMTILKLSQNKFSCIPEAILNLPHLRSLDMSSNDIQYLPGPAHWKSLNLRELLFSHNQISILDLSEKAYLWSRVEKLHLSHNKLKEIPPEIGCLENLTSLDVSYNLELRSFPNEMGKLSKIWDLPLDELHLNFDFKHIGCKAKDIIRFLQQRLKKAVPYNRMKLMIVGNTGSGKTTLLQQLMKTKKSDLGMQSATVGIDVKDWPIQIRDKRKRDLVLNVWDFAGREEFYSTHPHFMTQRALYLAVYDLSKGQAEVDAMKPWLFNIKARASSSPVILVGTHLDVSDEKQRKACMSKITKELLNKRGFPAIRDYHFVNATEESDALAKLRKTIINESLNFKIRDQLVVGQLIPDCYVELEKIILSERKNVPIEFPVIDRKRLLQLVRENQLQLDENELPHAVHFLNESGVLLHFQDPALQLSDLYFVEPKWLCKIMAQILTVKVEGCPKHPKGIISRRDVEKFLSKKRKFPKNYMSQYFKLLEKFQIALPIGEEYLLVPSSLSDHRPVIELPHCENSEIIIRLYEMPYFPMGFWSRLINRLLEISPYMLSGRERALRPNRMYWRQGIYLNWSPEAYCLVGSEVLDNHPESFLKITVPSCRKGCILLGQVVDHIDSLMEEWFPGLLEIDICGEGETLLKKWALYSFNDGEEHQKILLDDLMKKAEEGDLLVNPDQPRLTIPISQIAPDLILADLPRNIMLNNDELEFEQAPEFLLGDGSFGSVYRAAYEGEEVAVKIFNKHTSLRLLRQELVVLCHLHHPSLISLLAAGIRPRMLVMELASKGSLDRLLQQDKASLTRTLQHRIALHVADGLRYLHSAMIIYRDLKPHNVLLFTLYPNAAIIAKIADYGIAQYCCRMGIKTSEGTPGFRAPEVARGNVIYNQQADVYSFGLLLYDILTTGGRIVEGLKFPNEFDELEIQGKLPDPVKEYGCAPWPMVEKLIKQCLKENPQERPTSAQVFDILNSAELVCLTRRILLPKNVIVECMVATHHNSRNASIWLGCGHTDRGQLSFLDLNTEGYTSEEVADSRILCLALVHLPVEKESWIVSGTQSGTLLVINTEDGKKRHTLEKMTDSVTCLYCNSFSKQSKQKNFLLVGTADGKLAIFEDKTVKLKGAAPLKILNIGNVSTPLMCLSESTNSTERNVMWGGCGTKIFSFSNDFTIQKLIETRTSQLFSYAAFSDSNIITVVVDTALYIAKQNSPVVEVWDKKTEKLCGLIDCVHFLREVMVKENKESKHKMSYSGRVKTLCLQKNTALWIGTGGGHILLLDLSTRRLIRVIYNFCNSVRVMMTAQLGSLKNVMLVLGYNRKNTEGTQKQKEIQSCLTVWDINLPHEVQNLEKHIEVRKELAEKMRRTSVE

[5] = molecular target: T1, Dual specificity mitogen-activated protein kinase kinase 4 (Homo sapiens) (UniProt P45985); assay: Inhibition of wild type recombinant human MEK4 (S84 to D399 residues) at 1 uM relative to control
T1 sequence (whole entry): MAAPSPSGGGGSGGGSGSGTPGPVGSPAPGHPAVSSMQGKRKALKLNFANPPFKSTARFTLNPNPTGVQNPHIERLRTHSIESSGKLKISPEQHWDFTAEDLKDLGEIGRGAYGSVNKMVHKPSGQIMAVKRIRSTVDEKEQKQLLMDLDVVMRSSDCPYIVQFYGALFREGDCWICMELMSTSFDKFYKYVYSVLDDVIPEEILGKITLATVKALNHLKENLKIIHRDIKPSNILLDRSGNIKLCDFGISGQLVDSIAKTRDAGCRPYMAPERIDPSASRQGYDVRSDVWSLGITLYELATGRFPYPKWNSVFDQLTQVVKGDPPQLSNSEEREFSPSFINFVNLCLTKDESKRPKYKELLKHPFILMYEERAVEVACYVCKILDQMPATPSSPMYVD

[6] = species on record: Homo sapiens; assay: Selectivity ratio of IC50 for MEK3 (unknown origin) to IC50 for MEK6 (unknown origin)
[7] = species on record: Homo sapiens; assay: Selectivity ratio of IC50 for MEK2 (unknown origin) to IC50 for MEK6 (unknown origin)
[8] = species on record: Homo sapiens; assay: Selectivity ratio of IC50 for MEK1 (unknown origin) to IC50 for MEK6 (unknown origin)
[9] = species on record: Homo sapiens; assay: Selectivity ratio of IC50 for MEK4 (unknown origin) to IC50 for MEK6 (unknown origin)
[10] = molecular target: T2, Dual specificity mitogen-activated protein kinase kinase 6 (Homo sapiens, UniProt P52564); assay: Inhibition of MEK6 (unknown origin)
T2 sequence (P52564 whole entry): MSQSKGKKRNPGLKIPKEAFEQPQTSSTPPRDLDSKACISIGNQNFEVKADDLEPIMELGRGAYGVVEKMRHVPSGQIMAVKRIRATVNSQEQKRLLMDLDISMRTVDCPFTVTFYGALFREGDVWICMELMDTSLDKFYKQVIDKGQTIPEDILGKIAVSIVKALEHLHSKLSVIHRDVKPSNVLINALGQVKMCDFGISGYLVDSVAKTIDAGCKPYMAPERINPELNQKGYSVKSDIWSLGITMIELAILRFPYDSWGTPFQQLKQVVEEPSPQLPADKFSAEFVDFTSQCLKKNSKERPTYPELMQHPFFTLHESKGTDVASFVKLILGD

[11] = molecular target: T3, Dual specificity mitogen-activated protein kinase kinase 7 (Homo sapiens, UniProt O14733); assay: Inhibition of MEK7 (unknown origin)
T3 sequence (O14733 whole entry): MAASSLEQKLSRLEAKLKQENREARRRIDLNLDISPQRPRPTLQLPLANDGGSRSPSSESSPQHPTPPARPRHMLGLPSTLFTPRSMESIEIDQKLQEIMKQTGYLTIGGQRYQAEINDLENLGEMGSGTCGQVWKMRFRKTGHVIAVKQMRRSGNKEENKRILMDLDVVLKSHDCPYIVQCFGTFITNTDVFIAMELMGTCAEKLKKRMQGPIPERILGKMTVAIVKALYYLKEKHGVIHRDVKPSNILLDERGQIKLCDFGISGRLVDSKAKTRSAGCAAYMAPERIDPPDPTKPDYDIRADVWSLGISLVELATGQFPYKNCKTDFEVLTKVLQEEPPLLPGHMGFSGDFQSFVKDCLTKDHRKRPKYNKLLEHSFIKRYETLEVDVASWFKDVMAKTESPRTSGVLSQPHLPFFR

[12] = species on record: Homo sapiens; assay: Selectivity ratio of IC50 for CDC25B (unknown origin) to IC50 for MEK7 (unknown origin)
[13] = species on record: Homo sapiens; assay: Selectivity ratio of IC50 for CDC25A (unknown origin) to IC50 for MEK7 (unknown origin)
[14] = Inhibition of flag-tagged MEK4 Q253Y/I258V/R262M mutant (unknown origin) expressed in HEK-293T cells after 20 mins in presence of [32P]-ATP; type: cell-based, Homo sapiens
[15] = Inhibition of HA-tagged MEK7 R283Y/K288V/R292M mutant (unknown origin) expressed in HEK-293T cells after 20 mins in presence of [32P]-ATP; type: cell-based, Homo sapiens
[16] = molecular target: T4, Tyrosine-protein kinase JAK3 (Homo sapiens) (UniProt P52333); assay: Inhibition of recombinant human N-terminal His6-tagged JAK3 (781 to end residues) expressed in baculovirus infected Sf21 cells at 1 uM relative to control
T4 sequence (whole entry): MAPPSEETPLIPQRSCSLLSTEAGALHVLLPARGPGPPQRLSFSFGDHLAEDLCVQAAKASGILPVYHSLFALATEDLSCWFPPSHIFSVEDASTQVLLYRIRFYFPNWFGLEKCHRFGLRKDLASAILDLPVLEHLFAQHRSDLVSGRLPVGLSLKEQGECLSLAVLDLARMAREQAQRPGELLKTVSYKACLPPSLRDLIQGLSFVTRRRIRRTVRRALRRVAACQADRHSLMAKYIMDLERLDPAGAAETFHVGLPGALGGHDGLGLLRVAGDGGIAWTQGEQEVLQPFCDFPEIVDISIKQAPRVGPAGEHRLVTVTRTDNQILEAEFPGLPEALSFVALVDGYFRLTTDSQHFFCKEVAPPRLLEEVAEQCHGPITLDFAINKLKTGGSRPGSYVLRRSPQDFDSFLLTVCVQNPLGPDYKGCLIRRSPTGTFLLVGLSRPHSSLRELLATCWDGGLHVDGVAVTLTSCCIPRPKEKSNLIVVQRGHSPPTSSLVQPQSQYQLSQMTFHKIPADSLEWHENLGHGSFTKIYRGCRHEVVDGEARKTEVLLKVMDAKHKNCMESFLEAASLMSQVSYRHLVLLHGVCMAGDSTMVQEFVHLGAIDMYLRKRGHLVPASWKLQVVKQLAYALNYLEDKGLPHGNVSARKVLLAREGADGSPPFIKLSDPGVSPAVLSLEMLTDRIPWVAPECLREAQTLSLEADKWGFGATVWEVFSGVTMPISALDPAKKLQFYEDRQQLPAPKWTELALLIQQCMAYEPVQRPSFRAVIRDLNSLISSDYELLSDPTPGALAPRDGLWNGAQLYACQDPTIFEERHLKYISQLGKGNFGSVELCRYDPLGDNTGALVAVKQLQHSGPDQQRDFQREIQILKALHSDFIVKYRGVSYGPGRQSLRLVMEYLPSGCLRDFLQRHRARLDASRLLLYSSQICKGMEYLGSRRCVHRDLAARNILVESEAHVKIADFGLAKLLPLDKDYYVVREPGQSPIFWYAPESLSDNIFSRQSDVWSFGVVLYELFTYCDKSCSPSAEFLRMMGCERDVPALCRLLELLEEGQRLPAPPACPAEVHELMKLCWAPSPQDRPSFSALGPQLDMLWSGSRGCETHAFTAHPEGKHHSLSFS

- Ratio IC50 [1]: 580
- Ratio IC50 [2]: 60
SMILES: CN(C)Cc1cccc(N/C(=C2\C(=O)Nc3cc(C(N)=O)ccc32)c2ccccc2)c1

- inhibition [3]: > 75%
- inhibition [4]: > 75%
- inhibition [5]: > 75%
SMILES: C=CC(=O)Nc1cccc(-c2n[nH]c3cc(C)ccc23)c1

- Ratio IC50 [6]: 3
- Ratio IC50 [7]: 9
- Ratio IC50 [8]: 12
- Ratio IC50 [9]: 3
- IC50 [10]: 4.5 µM
SMILES: C=C(CC)C(=O)c1ccc(OCC(=O)O)c(Cl)c1Cl [ETHACRYNIC ACID]

- IC50 [11]: 1.9 µM
- Ratio IC50 [12]: 12
- Ratio IC50 [13]: 17
SMILES: O=C(O)c1cccc(NC2=CC(=O)c3ccccc3C2=O)c1

- IC50 [14]: 6 µM
- IC50 [15]: 10 µM
SMILES: COc1ccc2c(Cc3ccc(O[Si](C)(C)C(C)(C)C)cc3)c3[n+](cc2c1OC)CCc1ccccc1-3

- IC50 [11]: 0.23 µM
SMILES: O=C(O)CCSC1=CC(=O)c2ccccc2C1=O

- inhibition [3]: > 75%
- inhibition [4]: > 75%
- inhibition [5]: > 75%
- inhibition [16]: > 75%
SMILES: C=CC(=O)Nc1cccc(-c2n[nH]c3ccccc23)c1
